Key:
[1] = molecular target: T1, Polyunsaturated fatty acid lipoxygenase ALOX15 (Oryctolagus cuniculus, UniProt P12530); assay: biochemical; assay type: tissue-based, Reticulocytes;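 further: inhibition of 15-lipoxygenase enzyme activity measured with linoleic acid as the substrate; in other assays of this panel Not Active means under 50% inhibition at 10 µM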
T1 sequence (P12530 whole entry): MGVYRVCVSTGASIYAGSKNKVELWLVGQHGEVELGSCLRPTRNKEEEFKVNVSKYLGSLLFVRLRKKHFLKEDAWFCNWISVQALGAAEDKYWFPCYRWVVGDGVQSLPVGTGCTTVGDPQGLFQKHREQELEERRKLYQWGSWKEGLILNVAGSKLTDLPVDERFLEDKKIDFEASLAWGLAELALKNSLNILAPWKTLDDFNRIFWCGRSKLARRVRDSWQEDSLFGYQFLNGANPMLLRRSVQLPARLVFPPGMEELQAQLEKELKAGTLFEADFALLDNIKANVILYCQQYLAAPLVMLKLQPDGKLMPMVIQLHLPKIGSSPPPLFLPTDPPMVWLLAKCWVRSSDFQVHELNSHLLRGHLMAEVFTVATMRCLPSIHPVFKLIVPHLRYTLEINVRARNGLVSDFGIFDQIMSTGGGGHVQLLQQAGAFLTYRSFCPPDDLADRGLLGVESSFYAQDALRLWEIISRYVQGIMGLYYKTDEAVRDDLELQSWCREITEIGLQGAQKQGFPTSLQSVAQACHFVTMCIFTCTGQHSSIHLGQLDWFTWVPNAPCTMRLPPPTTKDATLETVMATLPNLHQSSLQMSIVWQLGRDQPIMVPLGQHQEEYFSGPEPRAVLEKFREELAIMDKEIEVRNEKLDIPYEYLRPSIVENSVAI

Substance-K receptor = molecular target: T2, Substance-K receptor (Homo sapiens, UniProt P21452); assay type: cell membranes, CHO, Membrane; conditions: for Ki: read-out: Ki; on all read-outs here: in other assays of this panel Not Active means under 50% inhibition at 10 µM
T2 sequence (P21452 whole entry): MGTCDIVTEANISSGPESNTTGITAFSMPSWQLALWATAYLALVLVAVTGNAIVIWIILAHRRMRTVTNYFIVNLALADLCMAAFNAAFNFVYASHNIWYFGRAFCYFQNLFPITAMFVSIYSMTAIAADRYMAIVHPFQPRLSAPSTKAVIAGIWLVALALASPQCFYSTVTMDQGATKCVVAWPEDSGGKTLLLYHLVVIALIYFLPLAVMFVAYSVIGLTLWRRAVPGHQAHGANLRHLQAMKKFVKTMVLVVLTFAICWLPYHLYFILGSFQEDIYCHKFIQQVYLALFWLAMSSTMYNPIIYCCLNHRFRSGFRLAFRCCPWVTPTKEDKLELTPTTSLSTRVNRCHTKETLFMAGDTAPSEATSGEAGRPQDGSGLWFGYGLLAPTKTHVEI

Cathepsin G = molecular target: T3, Cathepsin G (Homo sapiens, UniProt P08311); assay type: tissue-based; conditions: neutrophil;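 further: inhibition of Cathepsin G enzyme activity, tested on an AMC-conjugated peptide substrate; in other assays of this panel Not Active means under 50% inhibition at 10 µM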
T3 sequence (P08311 whole entry): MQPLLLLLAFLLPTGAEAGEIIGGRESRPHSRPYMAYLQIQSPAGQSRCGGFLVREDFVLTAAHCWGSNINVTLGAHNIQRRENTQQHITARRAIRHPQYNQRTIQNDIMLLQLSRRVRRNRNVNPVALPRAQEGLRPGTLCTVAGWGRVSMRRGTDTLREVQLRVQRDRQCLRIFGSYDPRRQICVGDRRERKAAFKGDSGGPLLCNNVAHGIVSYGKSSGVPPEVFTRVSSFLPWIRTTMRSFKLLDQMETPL

[2] = molecular target: T4, Angiotensin-converting enzyme (Oryctolagus cuniculus, UniProt P12822); assay type: tissue-based, Lung;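 further: enzymatic inhibition of angiotensin-converting enzyme measured with FAPGG as the substrate; in other assays of this panel Not Active means under 50% inhibition at 10 µM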
T4 sequence (P12822 whole entry): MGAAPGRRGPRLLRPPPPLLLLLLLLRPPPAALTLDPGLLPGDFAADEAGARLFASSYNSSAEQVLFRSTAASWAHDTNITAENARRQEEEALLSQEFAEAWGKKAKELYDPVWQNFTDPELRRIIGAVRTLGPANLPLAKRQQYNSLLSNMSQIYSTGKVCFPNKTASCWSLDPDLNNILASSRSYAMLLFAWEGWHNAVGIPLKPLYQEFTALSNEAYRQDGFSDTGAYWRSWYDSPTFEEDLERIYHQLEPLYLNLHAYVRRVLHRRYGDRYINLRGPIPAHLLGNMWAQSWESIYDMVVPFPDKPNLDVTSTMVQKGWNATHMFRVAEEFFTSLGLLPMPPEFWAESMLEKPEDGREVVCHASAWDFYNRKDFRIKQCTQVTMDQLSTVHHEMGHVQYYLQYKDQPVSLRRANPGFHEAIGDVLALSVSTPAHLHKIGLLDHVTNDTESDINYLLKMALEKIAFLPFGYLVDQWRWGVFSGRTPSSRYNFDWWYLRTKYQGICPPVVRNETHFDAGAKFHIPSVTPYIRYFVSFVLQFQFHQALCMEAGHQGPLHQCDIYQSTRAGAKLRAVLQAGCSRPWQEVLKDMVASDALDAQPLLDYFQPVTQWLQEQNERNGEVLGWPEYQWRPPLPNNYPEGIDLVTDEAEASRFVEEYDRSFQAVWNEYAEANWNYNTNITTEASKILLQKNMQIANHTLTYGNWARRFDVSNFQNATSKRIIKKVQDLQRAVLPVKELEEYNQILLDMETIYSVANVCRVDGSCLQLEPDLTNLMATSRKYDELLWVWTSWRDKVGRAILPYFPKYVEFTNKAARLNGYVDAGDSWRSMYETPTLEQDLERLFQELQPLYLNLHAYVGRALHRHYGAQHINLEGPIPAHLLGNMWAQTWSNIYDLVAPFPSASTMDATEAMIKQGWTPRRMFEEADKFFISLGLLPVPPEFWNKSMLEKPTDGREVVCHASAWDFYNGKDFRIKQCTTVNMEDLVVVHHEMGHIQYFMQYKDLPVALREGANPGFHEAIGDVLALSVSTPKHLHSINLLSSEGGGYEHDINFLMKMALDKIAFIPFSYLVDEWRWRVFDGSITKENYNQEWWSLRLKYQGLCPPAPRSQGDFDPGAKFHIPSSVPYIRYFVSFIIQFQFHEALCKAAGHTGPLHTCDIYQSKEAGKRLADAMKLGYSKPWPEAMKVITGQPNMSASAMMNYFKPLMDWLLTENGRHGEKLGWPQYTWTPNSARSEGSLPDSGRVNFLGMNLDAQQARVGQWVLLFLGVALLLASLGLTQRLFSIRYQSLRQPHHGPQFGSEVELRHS

[3] = DRUGMATRIX: Tumor Necrosis Factor (TNF), Non-Selective radioligand binding (ligand: [125I] TNF-alpha); assay type: cell membranes, Membrane; conditions: u-937; Not Active = under 50% inhibition at 10 µM
[4] = DRUGMATRIX: Phorbol Ester radioligand binding (ligand: [3H] PDBu); assay type: cell membranes, Mus musculus, ICR, Brain, Membrane; conditions: Not Active = under 50% inhibition at 10 µM

SMILES	IC50 ([1]; read-out: IC50) [µM]	IC50 (Substance-K receptor; cho)	IC50 (Cathepsin G)	IC50 [2]	IC50 [3]	Ki [3]	IC50 [4]	Ki [4]	IC50 ([1]; reticulocytes)	IC50 (Substance-K receptor; read-out: IC50) [µM]	Ki (Substance-K receptor) [µM]
Cc1c(C)c2c(c(C)c1O)CCC(C)(CN1CCN(c3cc(N4CCCC4)nc(N4CCCC4)n3)CC1)O2 (stereo unspecified)	5.67	Not Active	Not Active	Not Active	Not Active	Not Active	Not Active	Not Active	–	–	–
COc1ccc(CCN(C)CCCC(C#N)(c2ccc(OC)c(OC)c2)C(C)C)cc1OC (stereo unspecified)	–	Not Active	Not Active	Not Active	Not Active	Not Active	Not Active	Not Active	Not Active	–	–
CC(C)Cc1ccc([C@@H](C)C(=O)O)cc1 [(R)-IBUPROPHEN]	–	Not Active	Not Active	Not Active	Not Active	Not Active	Not Active	Not Active	Not Active	–	–
CN(C)CCOC(c1ccccc1)c1ccccc1 [DIPHENHYDRAMINE]	–	Not Active	Not Active	Not Active	–	–	–	–	Not Active	–	–
Clc1ccc(COC(Cn2ccnc2)c2ccc(Cl)cc2Cl)cc1 (stereo unspecified) [ECONAZOLE]	–	–	Not Active	Not Active	–	–	–	–	Not Active	6.03	2.01
CCN(CC)CCOc1ccc(/C(=C(/Cl)c2ccccc2)c2ccccc2)cc1 [ENCLOMIPHENE]	–	–	Not Active	Not Active	–	–	–	–	Not Active	4.52	1.51
Fc1ccc(C(c2ccc(F)cc2)N2CCN(C/C=C/c3ccccc3)CC2)cc1 [FLUNARIZINE]	–	Not Active	Not Active	Not Active	–	–	–	–	Not Active	–	–
CNCCC(Oc1ccc(C(F)(F)F)cc1)c1ccccc1 (stereo unspecified) [FLUOXETINE]	–	Not Active	Not Active	Not Active	–	–	–	–	Not Active	–	–
Cc1ccc(NC(=O)c2ccc(CN3CCN(C)CC3)cc2)cc1Nc1nccc(-c2cccnc2)n1 [IMATINIB]	–	Not Active	Not Active	Not Active	–	–	–	–	Not Active	–	–
CC(C)Oc1ccc2c(=O)c(-c3ccccc3)coc2c1 [IPRIFLAVONE]	–	Not Active	Not Active	Not Active	Not Active	Not Active	Not Active	Not Active	Not Active	–	–
CC(C)NCC(O)c1ccc(O)c(O)c1 (stereo unspecified) [ISOPROTERENOL]	1.77	Not Active	Not Active	Not Active	Not Active	Not Active	Not Active	Not Active	–	–	–
